Measured values: paper PMC8746493, “Co-Inhibition of P-gp and Hsp90 by an Isatin-Derived Compound Contributes to the Increase of the Chemosensitivity of MCF7/ADR-Resistant Cells to Doxorubicin” (Molecules, 2021)

Biological target: T1, Hsp90α (Homo sapiens, UniProt P07900)
T1 construct: gene HSP90AA1; full length protein
Assay: SPR (Biacore […], immobilized recombinant Hsp90α)
Format: binding

- Kd: 41.2 ± 2.1 nM
SMILES: O=C(CN1C(=O)NC(c2ccccc2)(c2ccccc2)C1=O)NN=C1C(=O)Nc2ccc(F)cc21 [compound 16, HAA2021]
